{"source": "paper PMC8483358", "about": "(2021)", "key": {"[1]": {"tested_on": "F1174L-mutated ALK hairpin oligonucleotide (DNA, hairpin) AAATTAAACCACCAGAACATTTTTATGTTCTGGTGGTTTAATTT", "experiment": "SPR (Biacore X100), kinetic fit with mass transfer", "settings": "150 mM NaCl; HBS-EP: 10 mM HEPES, 3 mM EDTA, 0.005% P20, 0.1% DMSO, 25 °C"}, "[2]": {"tested_on": "ALK wild-type (WT) hairpin oligonucleotide (DNA, hairpin) AAATTCAACCACCAGAACATTTTTATGTTCTGGTGGTTGAATTT", "experiment": "SPR (Biacore X100), kinetic fit with mass transfer", "settings": "150 mM NaCl; HBS-EP: 10 mM HEPES, 3 mM EDTA, 0.005% P20, 0.1% DMSO, 25 °C"}}, "data": [{"smiles": "CC(=O)Nc1cc(C(=O)Nc2cc(C(=O)Nc3cc(C(=O)Nc4cc(C(=O)NCCC(=O)Nc5cc(C(=O)Nc6cc(C(=O)Nc7cc(C(=O)NCCCC(=O)Nc8cn(C)c(C(=O)Nc9cn(C)c(C(=O)NCCC(=O)Nc%10cn(C)c(C(=O)Nc%11cn(C)c(C(=O)Nc%12cc(C(=O)Nc%13ccc%14cc(C(=O)NCCCN(C)C)[nH]c%14c%13)n(C)c%12)n%11)n%10)n9)n8)n(C)c7)n(C)c6)n(C)c5)n(C)c4)n(C)c3)n(C)c2)n(C)c1", "values": [{"measurement": "KD", "setting": "[1]", "result": "6.37 ± 0.41 × 10^-8 M"}, {"measurement": "KD", "setting": "[2]", "result": "58.20 ± 1.62 × 10^-8 M"}]}]}
